According to US8242159B2, “1,3-dihydro-5-isobenzofurancarbonitrile derivatives and pharmaceutical composition thereof for the treatment of premature ejaculation” (Dong-A Pharmaceutical. Co., Ltd, priority 2007, dated 2012):

Tested on: Male Wistar rats
Experiment: p-PCA-induced ejaculation in anesthetized rats (ejaculation-delaying effect)
Type: in vivo, rat
Details: for Ratio: Number of responding animals/total animal number: 50 mg/kg oral in 1% HPMC, p-PCA 5 mg/kg i.p. 80 min later, observed 30 min; for Latency: Time to display the ejaculatory response: 50 mg/kg oral, p-PCA 5 mg/kg i.p., mean ± standard deviation of responding rats
Method: The compounds prepared in the above examples were evaluated to determine whether they have an effect of delaying ejaculation. The evaluation was carried out using an animal model according to a method described in Yonezawa et al., Life Sci. 2000, 67(25) p 3031-9. Male Wistar rats weighing 240-260 g were used. Each compound was suspended in 1% HPMC, and then administered orally to each animal. After 60 min, the animals were anesthetized and fixed. 20 min later, para-chloroamphetamine (p-PCA) was intraperitoneally administered in a dose of 5 mg/kg in order to induce ejaculation. […] An ejaculatory response was considered to be elicited when rhythmic contraction of bulbocavernosus muscles and semen discharge occurs. Six or more animals were used for each compound. A Fisher's […] test was performed for the comparison of the proportion of responding rats (ejaculated rats) to determine significance of difference between a treatment group and a vehicle control. The time to reach ejaculation was expressed as mean±standard deviation.
Each test compound was administered at a dose of 50 mg/kg. Ejaculation was elicited in all seven animals of a control group.

Row | Compound | Ratio: Number of responding animals/total animal number | Latency: Time to display the ejaculatory response [s]
1 | Cc1ccc(C2(CCn3cccn3)OCc3cc(C#N)ccc32)cc1 (stereo not drawn) [Ex. 32, 1-{2-(pyrazole-1-yl)ethyl}-1-(4-tolyl)-1,3-dihydro-5-isobenzofurancarbonitrile] | 4/9 | 1000 ± 401
2 | Cc1ccc(C2(CCn3cccn3)OCc3cc(C#N)ccc32)cc1.Cl (stereo not drawn) [Ex. 33, 1-{2-(pyrazole-1-yl)ethyl}-1-(4-tolyl)-1,3-dihydro-5-isobenzofurancarbonitrile hydrochloride] | 3/7 | 698 ± 374
3 | CN(C)CCCC1(c2ccc(N(C)C)cc2)OCc2cc(C#N)ccc21 (stereo not drawn) [Ex. 34, 1-(4-dimethylaminophenyl)-1-{3-(dimethylamino)propyl}-1,3-dihydro-5-isobenzofurancarbonitrile] | 4/9 | 807 ± 304
4 | CN(C)CCCC1(c2ccc(N(C)C)cc2)OCc2cc(C#N)ccc21.Cl (stereo not drawn) [Ex. 36, 1-(4-dimethylaminophenyl)-1-{3-(dimethylamino)propyl}-1,3-dihydro-5-isobenzofurancarbonitrile hydrochloride] | 2/6 | 554 ± 77
5 | CN(C)c1ccc(C2(CCCn3ccnc3)OCc3cc(C#N)ccc32)cc1 (stereo not drawn) [Ex. 37, 1-(4-dimethylaminophenyl)-1-{3-(imidazole-1-yl)propyl}-1,3-dihydro-5-isobenzofurancarbonitrile] | 4/7 | 950 ± 241
6 | CN(C)c1ccc(C2(CCCn3ccnc3)OCc3cc(C#N)ccc32)cc1.Cl (stereo not drawn) [Ex. 38, 1-(4-dimethylaminophenyl)-1-{3-(imidazole-1-yl)propyl}-1,3-dihydro-5-isobenzofurancarbonitrile hydrochloride] | 4/7 | 764 ± 304
7 | CN(C)CCCC1(c2cccs2)OCc2cc(C#N)ccc21 (stereo not drawn) [Ex. 39, 1-{3-(dimethylamino)propyl}-1-(2-thienyl)-1,3-dihydro-5-isobenzofurancarbonitrile] | 5/9 | 854 ± 287
8 | CN(C)CCCC1(c2cccs2)OCc2cc(C#N)ccc21.Cl (stereo not drawn) [Ex. 41, 1-{3-(dimethylamino)propyl}-1-(2-thienyl)-1,3-dihydro-5-isobenzofurancarbonitrile hydrochloride] | 1/7 | 702
9 | CN(C)CCC1(c2cccs2)OCc2cc(C#N)ccc21 (stereo not drawn) [Ex. 42, 1-{2-(dimethylamino)ethyl}-1-(2-thienyl)-1,3-dihydro-5-isobenzofurancarbonitrile] | 4/9 | 906 ± 275
10 | CN(C)CCC1(c2cccs2)OCc2cc(C#N)ccc21.Cl (stereo not drawn) [Ex. 43, 1-{2-(dimethylamino)ethyl}-1-(2-thienyl)-1,3-dihydro-5-isobenzofurancarbonitrile hydrochloride] | 3/7 | 888 ± 275
11 | N#Cc1ccc2c(c1)COC2(CCCn1ccnc1)c1cccs1 (stereo not drawn) [Ex. 44, 1-{3-(imidazole-1-yl)propyl}-1-(2-thienyl)-1,3-dihydro-5-isobenzofurancarbonitrile] | 4/7 | 904 ± 350
12 | Cl.N#Cc1ccc2c(c1)COC2(CCCn1ccnc1)c1cccs1 (stereo not drawn) [Ex. 46, 1-{3-(imidazole-1-yl)propyl}-1-(2-thienyl)-1,3-dihydro-5-isobenzofurancarbonitrile hydrochloride] | 0/7 | –
13 | N#Cc1ccc2c(c1)COC2(CCn1ccnc1)c1cccs1 (stereo not drawn) [Ex. 47, 1-{2-(imidazole-1-yl)ethyl}-1-(2-thienyl)-1,3-dihydro-5-isobenzofurancarbonitrile] | 4/7 | 814 ± 278
14 | Cl.N#Cc1ccc2c(c1)COC2(CCn1ccnc1)c1cccs1 (stereo not drawn) [Ex. 48, 1-{2-(imidazole-1-yl)ethyl}-1-(2-thienyl)-1,3-dihydro-5-isobenzofurancarbonitrile hydrochloride] | 3/7 | 904 ± 321
15 | N#Cc1ccc2c(c1)COC2(CCCn1cccn1)c1cccs1 (stereo not drawn) [Ex. 49, 1-{3-(pyrazole-1-yl)propyl}-1-(2-thienyl)-1,3-dihydro-5-isobenzofurancarbonitrile] | 5/9 | 807 ± 301
16 | Cl.N#Cc1ccc2c(c1)COC2(CCCn1cccn1)c1cccs1 (stereo not drawn) [Ex. 50, 1-{3-(pyrazole-1-yl)propyl}-1-(2-thienyl)-1,3-dihydro-5-isobenzofurancarbonitrile hydrochloride] | 3/7 | 979 ± 347
17 | N#Cc1ccc2c(c1)COC2(CCn1cccn1)c1cccs1 (stereo not drawn) [Ex. 51, 1-{2-(pyrazole-1-yl)ethyl}-1-(2-thienyl)-1,3-dihydro-5-isobenzofurancarbonitrile] | 4/7 | 1042 ± 451
18 | Cl.N#Cc1ccc2c(c1)COC2(CCn1cccn1)c1cccs1 (stereo not drawn) [Ex. 52, 1-{2-(pyrazole-1-yl)ethyl}-1-(2-thienyl)-1,3-dihydro-5-isobenzofurancarbonitrile hydrochloride] | 3/7 | 869 ± 274
19 | N#Cc1ccc2c(c1)COC2(CCCn1ccnc1)c1ccc(F)cc1 (stereo not drawn) [Ex. 53, 1-(4-fluorophenyl)-1-{3-(imidazole-1-yl)propyl}-1,3-dihydro-5-isobenzofurancarbonitrile] | 4/9 | 1054 ± 320
20 | Cl.N#Cc1ccc2c(c1)COC2(CCCn1ccnc1)c1ccc(F)cc1 (stereo not drawn) [Ex. 54, 1-(4-fluorophenyl)-1-{3-(imidazole-1-yl)propyl}-1,3-dihydro-5-isobenzofurancarbonitrile hydrochloride] | 5/9 | 1247 ± 352
21 | N#Cc1ccc2c(c1)COC2(CCn1ccnc1)c1ccc(F)cc1 (stereo not drawn) [Ex. 55, 1-(4-fluorophenyl)-1-{2-(imidazole-1-yl)ethyl}-1,3-dihydro-5-isobenzofurancarbonitrile] | 4/7 | 1450 ± 671
22 | Cl.N#Cc1ccc2c(c1)COC2(CCn1ccnc1)c1ccc(F)cc1 (stereo not drawn) [Ex. 56, 1-(4-fluorophenyl)-1-{2-(imidazole-1-yl)ethyl}-1,3-dihydro-5-isobenzofurancarbonitrile hydrochloride] | 2/6 | 606 ± 130
23 | N#Cc1ccc2c(c1)COC2(CCCn1cccn1)c1ccc(F)cc1 (stereo not drawn) [Ex. 57, 1-(4-fluorophenyl)-1-{3-(pyrazole-1-yl)propyl}-1,3-dihydro-5-isobenzofurancarbonitrile] | 4/9 | 951 ± 342
